Source: US5942518A, “Water-soluble fluoroethylcamptothecin derivative and process for production thereof” (priority 1995, dated 1999)
Structures can show the parent of a compound that is named as a salt.

Legend:
[1] = cited from earlier work
[2] = system: nucleic acid synthesis; settings: background; cited from earlier work
[3] = system: sarcoma 180; test: Antineoplastic effect against mouse sarcoma 180 tumor (Experimental Example 1); assay type: in vivo, ICR female mice; settings: sarcoma 180, tail vein, 3 times at 4-day intervals, day 14
Protocol: To ICR female mice of 5-week age, 5×10^6 cells of sarcoma 180 were implanted respectively under the skin of the axillary fossa. The medicine was administered to the tail vein three times from the day next to the administration at intervals of four days. After 14 days from the implantation, the tumors were enucleated and weighed. The antineoplastic effect is represented by the tumor growth inhibition rate (TGI=(1-T/C)×100) derived from the ratio (T/C) of the average tumor weight (T) of the medicine-administered group to the average tumor weight (C) of the control group.

[4] = system: mouse colonic cancer colon 26; test: Antineoplastic effect against mouse colonic cancer colon 26 (Experimental Example 2); assay type: in vivo, CDF-1 female mice; settings: for TGI (tumor growth inhibition rate): colon 26, tail vein, 3 times at 4-day intervals, day 17-19; for antineoplastic activity against the growth of advanced colonic cancer 26 tumor: mice, intravenous administration
Protocol: (§1) To CDF-1 female mice of 9-week age, 1×10^6 cells of mouse colonic cancer colon 26 were implanted respectively under the skin of the axillary fossa. The medicine was administered to the tail vein three times from six days after the administration when the tumor was detected by finger touch at intervals of four days. On the 17th to 19th days from the implantation,the tumors were enucleated and weighed. The antineoplastic effect is represented by the tumor growth inhibition rate (TGI=(1-T/C)×100) derived from the ratio (T/C) of the average tumor weight (T) of the medicine-administered group to the average tumor weight (C) of the control group.

[5] = Toxicity in the colon 26 mouse study; assay type: in vivo, CDF-1 female mice
Protocol: as §1

[6] = biological target: acetylcholine esterase; test: Inhibition of acetylcholine esterase reaction (Experimental Example 3); assay type: biochemical
Sequence of acetylcholine esterase (P22303 32-614): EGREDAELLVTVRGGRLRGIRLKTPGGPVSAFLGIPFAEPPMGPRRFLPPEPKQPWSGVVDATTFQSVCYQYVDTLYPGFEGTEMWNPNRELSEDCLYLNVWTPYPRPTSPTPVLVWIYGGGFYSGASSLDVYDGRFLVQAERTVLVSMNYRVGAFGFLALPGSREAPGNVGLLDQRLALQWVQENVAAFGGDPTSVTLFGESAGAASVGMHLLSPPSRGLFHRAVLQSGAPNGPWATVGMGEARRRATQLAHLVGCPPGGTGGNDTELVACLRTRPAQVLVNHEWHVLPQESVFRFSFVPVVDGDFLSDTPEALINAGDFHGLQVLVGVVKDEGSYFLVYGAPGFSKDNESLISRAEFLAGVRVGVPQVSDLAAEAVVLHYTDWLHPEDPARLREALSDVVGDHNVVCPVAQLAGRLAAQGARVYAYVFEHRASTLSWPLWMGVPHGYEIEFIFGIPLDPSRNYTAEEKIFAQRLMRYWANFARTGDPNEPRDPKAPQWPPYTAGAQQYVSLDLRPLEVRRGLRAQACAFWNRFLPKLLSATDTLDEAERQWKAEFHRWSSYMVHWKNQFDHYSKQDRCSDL
Protocol: The absorbance was measured at 412 nm. The reaction rate and the acetylthiocholine iodide concentration was plotted according to Lineweaver-Burk method to obtain Vmax, and Km. Then, the inhibition constant (Ki) was calculated from the inhibitor concentration.

| SMILES | TGI (tumor growth inhibition rate) ([3]; total dose 60 mg/kg) [%] | TGI (tumor growth inhibition rate) ([3]; total dose 120 mg/kg) [%] | TGI (tumor growth inhibition rate) ([4]; total dose 30 mg/kg) [%] | TGI (tumor growth inhibition rate) ([4]; total dose 60 mg/kg) [%] | TGI (tumor growth inhibition rate) ([4]; total dose 120 mg/kg) [%] | antineoplastic activity against the growth of advanced colonic cancer 26 tumor [4] | further results |
| --- | --- | --- | --- | --- | --- | --- | --- |
| CCC1(OC(=O)CN)C(=O)OCc2c1cc1n(c2=O)Cc2cc3cc4c(cc3nc2-1)OCO4 (stereo not drawn) [10,11-methylenedioxy-20-O-glycylcamptothecin] | – | – | – | – | – | – | toxicity / side effects ([1]; known camptothecin derivatives, background): highly toxic |
| CC[C@@]1(O)C(=O)OCc2c1cc1n(c2=O)Cc2cc3ccccc3nc2-1 [camptothecin, Camptothecin] | – | – | – | – | – | – | clinical toxicity ([1]; clinical tests in the United States): discontinued because of its toxicity; antineoplastic activity by inhibiting nucleic acid synthesis [2]: exhibit antineoplastic activity by inhibiting nucleic acid synthesis |
| CCc1c2c(nc3ccc(OC(=O)N4CCC(N5CCCCC5)CC4)cc13)-c1cc3c(c(=O)n1C2)COC(=O)[C@]3(O)CC [Irinotecan hydrochloride, irinotecan hydrochloride] | 75 | 74 | 8 | 28 | 34 | not inhibited | TGI (tumor growth inhibition rate) ([3]; total dose 30 mg/kg): 44%; Toxicity ([5]; colon 26 mice, tail vein, total dose 120 mg/kg): Toxic |
| CCOc1ccc2nc3c(c(CC)c2c1)Cn1c-3cc2c(c1=O)COC(=O)C2(CCF)OC(=O)CN (stereo not drawn) [Example 1, 4-[(aminomethylcarbonyl)oxy]-9-ethoxy-11-ethyl-4-(2-fluoroethyl)-1H-pyrano[3',4':6,7]indolidino[1,2-b]quinoline-3,14(4H,12H)-dione hydrochloride] | 83 | 91 | 28 | 59 | 81 | – | TGI (tumor growth inhibition rate) ([4]; total dose 180 mg/kg): 82%; Ki [6]: 20 to 40 µM |
| CC[C@@]1(OC(=O)CN)C(=O)OCc2c1cc1n(c2=O)Cc2cc3cc4c(cc3nc2-1)OCO4.Cl [Compound 1, 10,11-Methylenedioxy-20-O-glycylcamptothecin hydrochloride] | – | – | 44 | – | – | not inhibited | TGI (tumor growth inhibition rate) ([4]; total dose 7.5 mg/kg): 21%; TGI (tumor growth inhibition rate) ([4]; total dose 15 mg/kg): 22%; Toxicity ([5]; at a dose of as low as 20 mg/kg): toxic; Toxicity ([5]; colon 26 mice, tail vein, total dose 60 mg/kg): Toxic |
